Experimental findings from BindingDB's records for doi:10.1021/jm7012858 (Wyeth Research, 2008) are described below.

What all share (experiment): PI3K Inhibition Assay
In assay [1] the target is Phosphatidylinositol 4,5-bisphosphate 3-kinase catalytic subunit gamma isoform/Phosphoinositide 3-kinase regulatory subunit 5 (Homo sapiens, UniProt P48736). The following applies: pH 7.5; 22 °C. How it is done: (§1) Inhibition of PI3K enzyme activity is measured in a microtiter plate-based fluorescence polarization (FP) assay.
Assay [2] addresses Phosphatidylinositol 3-kinase regulatory subunit beta/4,5-bisphosphate 3-kinase catalytic subunit delta isoform (Homo sapiens, UniProt O00329+O00459). The following applies: pH 7.5; 22 °C. Here is the method: as §1
In assay [3] the target is Phosphatidylinositol 3-kinase regulatory subunit alpha/4,5-bisphosphate 3-kinase catalytic subunit alpha isoform (Homo sapiens, UniProt P42336). Here is the method:
as §1

Assay [4] addresses Phosphatidylinositol 3-kinase regulatory subunit beta/4,5-bisphosphate 3-kinase catalytic subunit beta isoform (Homo sapiens, UniProt P42338). The note with it: pH 7.5; 22 °C. How it is done:
as §1

As usually defined, the IC50 is the concentration at which inhibition is half-maximal. Read a high IC50 as weaker potency.

Chain of Phosphatidylinositol 3-kinase regulatory subunit alpha/4,5-bisphosphate 3-kinase catalytic subunit alpha isoform (P27986 whole entry, canonical isoform): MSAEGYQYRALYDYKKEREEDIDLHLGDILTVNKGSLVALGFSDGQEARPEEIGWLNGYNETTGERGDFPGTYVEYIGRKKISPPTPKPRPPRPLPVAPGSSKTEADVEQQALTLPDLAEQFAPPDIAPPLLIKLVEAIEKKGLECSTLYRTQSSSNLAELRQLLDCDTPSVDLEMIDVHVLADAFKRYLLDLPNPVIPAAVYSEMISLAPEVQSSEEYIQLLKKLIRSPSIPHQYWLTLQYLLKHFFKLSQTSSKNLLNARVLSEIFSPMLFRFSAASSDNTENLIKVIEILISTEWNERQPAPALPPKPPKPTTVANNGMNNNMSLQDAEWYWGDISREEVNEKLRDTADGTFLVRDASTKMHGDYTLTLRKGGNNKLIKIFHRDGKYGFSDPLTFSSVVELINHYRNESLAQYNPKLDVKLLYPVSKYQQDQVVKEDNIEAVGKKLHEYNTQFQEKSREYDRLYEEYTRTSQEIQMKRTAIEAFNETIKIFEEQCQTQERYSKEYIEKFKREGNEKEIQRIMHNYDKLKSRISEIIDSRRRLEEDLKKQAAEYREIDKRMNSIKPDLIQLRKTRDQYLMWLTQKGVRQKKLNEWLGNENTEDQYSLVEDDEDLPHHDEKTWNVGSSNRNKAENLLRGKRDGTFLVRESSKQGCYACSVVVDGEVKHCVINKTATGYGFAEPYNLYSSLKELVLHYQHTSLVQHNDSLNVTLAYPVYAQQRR
Chain of Phosphatidylinositol 3-kinase regulatory subunit alpha/4,5-bisphosphate 3-kinase catalytic subunit alpha isoform (P42336 whole entry, canonical isoform): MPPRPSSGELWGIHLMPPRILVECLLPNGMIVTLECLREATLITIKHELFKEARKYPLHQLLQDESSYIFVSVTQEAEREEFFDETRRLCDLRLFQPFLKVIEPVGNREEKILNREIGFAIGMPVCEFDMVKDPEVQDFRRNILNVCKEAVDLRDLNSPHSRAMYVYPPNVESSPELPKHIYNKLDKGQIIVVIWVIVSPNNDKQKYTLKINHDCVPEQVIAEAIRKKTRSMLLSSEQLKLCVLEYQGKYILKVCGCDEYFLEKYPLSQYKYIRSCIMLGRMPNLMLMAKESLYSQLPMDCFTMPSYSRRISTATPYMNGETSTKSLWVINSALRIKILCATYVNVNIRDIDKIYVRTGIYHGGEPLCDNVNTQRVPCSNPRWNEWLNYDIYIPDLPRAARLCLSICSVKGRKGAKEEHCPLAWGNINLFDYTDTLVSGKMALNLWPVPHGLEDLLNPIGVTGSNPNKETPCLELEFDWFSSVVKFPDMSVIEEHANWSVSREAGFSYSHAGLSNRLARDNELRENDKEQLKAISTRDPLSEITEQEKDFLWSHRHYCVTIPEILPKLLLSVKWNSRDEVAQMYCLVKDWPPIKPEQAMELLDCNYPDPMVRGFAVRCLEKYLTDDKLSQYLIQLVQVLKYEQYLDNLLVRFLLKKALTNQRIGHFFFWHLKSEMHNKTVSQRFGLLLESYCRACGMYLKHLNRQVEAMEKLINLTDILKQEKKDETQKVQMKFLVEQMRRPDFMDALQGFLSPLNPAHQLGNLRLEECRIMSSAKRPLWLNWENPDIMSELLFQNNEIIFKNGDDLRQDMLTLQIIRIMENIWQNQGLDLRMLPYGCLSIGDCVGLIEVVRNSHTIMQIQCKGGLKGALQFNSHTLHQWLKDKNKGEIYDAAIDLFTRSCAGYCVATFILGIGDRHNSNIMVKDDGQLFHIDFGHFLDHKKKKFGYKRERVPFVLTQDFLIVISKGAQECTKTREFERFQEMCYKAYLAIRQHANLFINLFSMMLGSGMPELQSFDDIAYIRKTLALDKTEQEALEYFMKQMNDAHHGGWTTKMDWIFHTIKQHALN
Chain of Phosphatidylinositol 3-kinase regulatory subunit beta/4,5-bisphosphate 3-kinase catalytic subunit delta isoform (O00459 whole entry, canonical isoform): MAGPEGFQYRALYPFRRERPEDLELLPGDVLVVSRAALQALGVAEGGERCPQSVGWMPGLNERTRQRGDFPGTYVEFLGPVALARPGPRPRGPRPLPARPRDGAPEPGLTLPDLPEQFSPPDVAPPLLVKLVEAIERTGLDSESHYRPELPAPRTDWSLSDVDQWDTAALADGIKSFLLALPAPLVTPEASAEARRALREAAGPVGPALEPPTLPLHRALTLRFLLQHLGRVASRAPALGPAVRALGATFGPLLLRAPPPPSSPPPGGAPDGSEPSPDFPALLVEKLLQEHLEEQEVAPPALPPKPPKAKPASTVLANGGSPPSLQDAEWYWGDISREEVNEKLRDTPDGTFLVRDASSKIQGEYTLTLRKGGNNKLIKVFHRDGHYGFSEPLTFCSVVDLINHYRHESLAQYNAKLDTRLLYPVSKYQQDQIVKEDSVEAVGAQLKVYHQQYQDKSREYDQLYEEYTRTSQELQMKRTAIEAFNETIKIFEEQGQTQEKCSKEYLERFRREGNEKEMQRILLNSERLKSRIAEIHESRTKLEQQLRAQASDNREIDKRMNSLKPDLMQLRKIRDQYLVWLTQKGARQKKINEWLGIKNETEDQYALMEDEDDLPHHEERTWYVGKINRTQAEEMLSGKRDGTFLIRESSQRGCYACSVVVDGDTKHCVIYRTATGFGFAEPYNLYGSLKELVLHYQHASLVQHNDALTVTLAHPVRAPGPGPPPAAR
Chain of Phosphatidylinositol 3-kinase regulatory subunit beta/4,5-bisphosphate 3-kinase catalytic subunit delta isoform (O00329 whole entry, canonical isoform): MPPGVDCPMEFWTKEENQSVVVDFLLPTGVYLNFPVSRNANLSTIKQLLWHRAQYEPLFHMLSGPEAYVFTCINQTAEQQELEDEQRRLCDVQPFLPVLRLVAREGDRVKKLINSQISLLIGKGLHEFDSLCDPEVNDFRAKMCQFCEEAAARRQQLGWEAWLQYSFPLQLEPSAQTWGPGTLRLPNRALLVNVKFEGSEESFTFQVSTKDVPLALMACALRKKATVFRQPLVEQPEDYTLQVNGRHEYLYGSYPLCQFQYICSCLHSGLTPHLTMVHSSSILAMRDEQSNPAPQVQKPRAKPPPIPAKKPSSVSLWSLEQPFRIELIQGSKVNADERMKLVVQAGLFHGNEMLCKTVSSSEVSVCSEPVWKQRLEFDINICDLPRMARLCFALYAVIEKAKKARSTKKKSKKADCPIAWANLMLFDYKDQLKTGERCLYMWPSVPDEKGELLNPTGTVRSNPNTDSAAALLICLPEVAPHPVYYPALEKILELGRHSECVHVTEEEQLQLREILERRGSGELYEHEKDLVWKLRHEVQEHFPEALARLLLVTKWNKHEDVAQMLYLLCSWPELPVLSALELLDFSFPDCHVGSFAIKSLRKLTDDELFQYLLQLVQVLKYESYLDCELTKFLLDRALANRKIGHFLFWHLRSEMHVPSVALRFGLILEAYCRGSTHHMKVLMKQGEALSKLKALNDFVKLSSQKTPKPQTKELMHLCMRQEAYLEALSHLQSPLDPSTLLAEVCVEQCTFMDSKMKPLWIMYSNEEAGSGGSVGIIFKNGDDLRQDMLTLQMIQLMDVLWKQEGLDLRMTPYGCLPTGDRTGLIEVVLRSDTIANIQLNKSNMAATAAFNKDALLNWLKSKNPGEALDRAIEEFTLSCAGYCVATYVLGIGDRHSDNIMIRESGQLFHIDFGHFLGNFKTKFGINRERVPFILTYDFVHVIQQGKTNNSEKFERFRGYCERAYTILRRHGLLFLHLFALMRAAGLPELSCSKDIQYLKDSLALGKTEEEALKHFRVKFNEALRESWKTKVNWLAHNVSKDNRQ
Chain of Phosphatidylinositol 3-kinase regulatory subunit beta/4,5-bisphosphate 3-kinase catalytic subunit beta isoform (P42338 whole entry, canonical isoform): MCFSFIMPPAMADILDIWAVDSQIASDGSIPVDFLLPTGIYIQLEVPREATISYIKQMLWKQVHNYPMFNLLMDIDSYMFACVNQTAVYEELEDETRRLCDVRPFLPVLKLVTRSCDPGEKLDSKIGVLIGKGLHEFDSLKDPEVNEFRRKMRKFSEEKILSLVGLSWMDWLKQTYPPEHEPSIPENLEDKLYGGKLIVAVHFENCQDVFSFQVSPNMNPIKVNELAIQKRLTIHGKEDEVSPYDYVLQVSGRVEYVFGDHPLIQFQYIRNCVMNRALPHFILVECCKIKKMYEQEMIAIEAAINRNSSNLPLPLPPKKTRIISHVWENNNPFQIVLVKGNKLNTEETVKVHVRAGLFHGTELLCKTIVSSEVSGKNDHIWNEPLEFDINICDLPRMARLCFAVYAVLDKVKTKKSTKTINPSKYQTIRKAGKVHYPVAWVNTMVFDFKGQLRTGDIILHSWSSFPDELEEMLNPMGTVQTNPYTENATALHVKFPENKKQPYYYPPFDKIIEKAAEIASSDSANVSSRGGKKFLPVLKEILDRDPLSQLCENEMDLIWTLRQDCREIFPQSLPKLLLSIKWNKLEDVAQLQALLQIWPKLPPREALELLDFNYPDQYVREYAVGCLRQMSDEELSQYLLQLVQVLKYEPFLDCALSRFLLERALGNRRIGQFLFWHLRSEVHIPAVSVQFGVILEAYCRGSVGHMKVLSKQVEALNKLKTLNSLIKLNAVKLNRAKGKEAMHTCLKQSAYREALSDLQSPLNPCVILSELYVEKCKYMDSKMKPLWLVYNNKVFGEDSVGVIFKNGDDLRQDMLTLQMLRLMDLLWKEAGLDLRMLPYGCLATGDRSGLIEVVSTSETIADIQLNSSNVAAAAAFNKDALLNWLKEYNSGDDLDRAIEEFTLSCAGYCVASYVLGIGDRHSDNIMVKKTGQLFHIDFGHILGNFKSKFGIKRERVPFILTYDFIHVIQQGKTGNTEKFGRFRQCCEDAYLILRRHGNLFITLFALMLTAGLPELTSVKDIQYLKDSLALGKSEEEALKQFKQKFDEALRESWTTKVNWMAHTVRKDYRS
Chain of Phosphatidylinositol 3-kinase regulatory subunit beta/4,5-bisphosphate 3-kinase catalytic subunit beta isoform (O00459 whole entry, further chain, canonical isoform): as the sequence (O00459 whole entry, canonical isoform) above

Turning to `COC[C@H]1OC(=O)C(=CN(C)CCCN(C)C)C2C(=O)C(=O)C3=C([C@H](OC(C)=O)C[C@@]4(C)C3CC[C@@H]4O)[C@]21C` (stereo partly drawn) [(2R,3S,6Z,14S,15S,17R)-6-({[3-(dimethylamino)propyl](methyl)amino}methylidene)-8,14-dihydroxy-3-(methoxymethyl)-2,15-dimethyl-5,9-dioxo-4-oxatetracyclo[8.7.0.0^{2,7}.0^{11,15}]heptadeca-1(10),7-dien-17-yl acetate], the IC50 turned out to be 8 nM in assay [1]; 11 nM in assay [2]; 6.4 nM in assay [3] (pH 7.5, 22 °C); 13 nM in assay [4].
As for `COC[C@H]1OC(=O)C(=CNC(C)(C)C)C2C(=O)C(=O)C3=C([C@H](OC(C)=O)C[C@@]4(C)C3CC[C@@H]4O)[C@]21C` (stereo partly drawn) [(2R,3S,6Z,14S,15S,17R)-6-[(tert-butylamino)methylidene]-8,14-dihydroxy-3-(methoxymethyl)-2,15-dimethyl-5,9-dioxo-4-oxatetracyclo[8.7.0.0^{2,7}.0^{11,15}]heptadeca-1(10),7-dien-17-yl acetate], in assay [3] (pH 7.5, 22 °C), the IC50 is more than 10000 nM.
On the same count and under the same terms, under `CCCCN(C)C=C1C(=O)O[C@H](COC)[C@]2(C)C3=C(C(=O)C(=O)C12)C1CC[C@H](O)[C@@]1(C)C[C@H]3OC(C)=O` (stereo partly drawn) [(2R,3S,6Z,14S,15S,17R)-6-{[butyl(methyl)amino]methylidene}-8,14-dihydroxy-3-(methoxymethyl)-2,15-dimethyl-5,9-dioxo-4-oxatetracyclo[8.7.0.0^{2,7}.0^{11,15}]heptadeca-1(10),7-dien-17-yl acetate] stands 635 nM; under `COC[C@H]1OC(=O)C(=CN(CCO)C(C)(C)C)C2C(=O)C(=O)C3=C([C@H](OC(C)=O)C[C@@]4(C)C3CC[C@@H]4O)[C@]21C` (stereo partly drawn) [(2R,3S,6Z,14S,15S,17R)-6-{[tert-butyl(2-hydroxyethyl)amino]methylidene}-8,14-dihydroxy-3-(methoxymethyl)-2,15-dimethyl-5,9-dioxo-4-oxatetracyclo[8.7.0.0^{2,7}.0^{11,15}]heptadeca-1(10),7-dien-17-yl acetate], 1110 nM.
Still for that read-out and setting: to `COC[C@H]1OC(=O)C(=CN(C)C(C)(C)C)C2C(=O)C(=O)C3=C([C@H](OC(C)=O)C[C@@]4(C)C3CC[C@@H]4O)[C@]21C` (stereo partly drawn) [(2R,3S,6Z,14S,15S,17R)-6-{[tert-butyl(methyl)amino]methylidene}-8,14-dihydroxy-3-(methoxymethyl)-2,15-dimethyl-5,9-dioxo-4-oxatetracyclo[8.7.0.0^{2,7}.0^{11,15}]heptadeca-1(10),7-dien-17-yl acetate] belongs 440 nM.
Still for that read-out and setting: under `COC[C@H]1OC(=O)C(=CN2CCCC2)C2C(=O)C(=O)C3=C([C@H](OC(C)=O)C[C@@]4(C)C3CC[C@@H]4O)[C@]21C` (stereo partly drawn) [(2R,3S,6Z,14S,15S,17R)-8,14-dihydroxy-3-(methoxymethyl)-2,15-dimethyl-5,9-dioxo-6-(pyrrolidin-1-ylmethylidene)-4-oxatetracyclo[8.7.0.0^{2,7}.0^{11,15}]heptadeca-1(10),7-dien-17-yl acetate] stands 496 nM; under `C=CCN(C=C1C(=O)O[C@H](COC)[C@]2(C)C3=C(C(=O)C(=O)C12)C1CCC(=O)[C@@]1(C)C[C@H]3OC(C)=O)CC=C` (some centres not stated) [PX-866], 88 nM.
`COC[C@H]1OC(=O)C(=CN2CCC(C(=O)OC)CC2)C2C(=O)C(=O)C3=C([C@H](OC(C)=O)C[C@@]4(C)C3CC[C@@H]4O)[C@]21C` (stereo partly drawn) [methyl 1-{[(2R,3S,6E,14S,15S,17R)-17-(acetyloxy)-8,14-dihydroxy-3-(methoxymethyl)-2,15-dimethyl-5,9-dioxo-4-oxatetracyclo[8.7.0.0^{2,7}.0^{11,15}]heptadeca-1(10),7-dien-6-ylidene]methyl}piperidine-4-carboxylate]: 31 nM corresponded to half-maximal inhibition in assay [3] (IC50). This lies in the double-digit nanomolar range.
On the same count and under the same terms, to `COC[C@H]1OC(=O)C(=CN(C)CC(=O)OC(C)(C)C)C2C(=O)C(=O)C3=C([C@H](OC(C)=O)C[C@@]4(C)C3CC[C@@H]4O)[C@]21C` (stereo partly drawn) [tert-butyl 2-({[(2R,3S,6E,14S,15S,17R)-17-(acetyloxy)-8,14-dihydroxy-3-(methoxymethyl)-2,15-dimethyl-5,9-dioxo-4-oxatetracyclo[8.7.0.0^{2,7}.0^{11,15}]heptadeca-1(10),7-dien-6-ylidene]methyl}(methyl)amino)acetate] belongs 1580 nM.
